# Source: patent US8080657B2, “Compounds of reverse turn mimetics and the use thereof” (Choongwae Pharma Corporation, priority 2008, dated 2011)
# Like-named read-outs stand apart in the source and are kept apart here.
# System: Wnt signaling
# Test: TopFlash reporter gene bioassay in SW480 cells
# Assay type: cell-based
# Conditions: Homo sapiens, read-out: RGA, IC50 (μM) TopF
# [1] = SW480, TopFlash reporter gene assay, inhibition of Wnt signaling
Structure (SMILES),IC50 [1] [µM],IC50 (SW480) [µM]
C=CCN1CC(=O)N2[C@@H](Cc3ccc(O)cc3)C(=O)N(Cc3cccc(-c4ccc(N5CCOCC5)nc4)c3)C[C@@H]2N1C(=O)NCc1ccccc1 [compound 62],0.81 ± 0.15,
C=CCN1CC(=O)N2[C@@H](Cc3ccc(O)cc3)C(=O)N(Cc3cccc4c(C)c(-c5ccccc5F)n(S(=O)(=O)c5ccccc5)c34)C[C@@H]2N1C(=O)NCc1ccccc1 [compound 63],0.82 ± 0.25,
C=CCN1CC(=O)N2[C@@H](Cc3ccc(O)cc3)C(=O)N(Cc3cccc4ccn(S(=O)(=O)c5ccc(C)cc5)c34)C[C@@H]2N1C(=O)NCc1ccccc1 [compound 64],0.82 ± 0.33,
C=CCN1CC(=O)N2[C@@H](Cc3ccc(O)cc3)C(=O)N(Cc3csc4cc(NCCC)ccc34)C[C@@H]2N1C(=O)NCc1ccccc1 [compound 66],0.84 ± 0.09,
C=CCN1CC(=O)N2[C@@H](Cc3ccc(O)cc3)C(=O)N(Cc3cn(C)c4ccccc34)C[C@@H]2N1C(=O)NCc1ccccc1 [compound 67],0.85 ± 0.089,
C=CCN1CC(=O)N2[C@@H](Cc3ccc(O)cc3)C(=O)N(Cc3ccc(F)c(OCCN4CCOCC4)c3)C[C@@H]2N1C(=O)NCc1ccccc1 [compound 70],0.9 ± 0.2,
C=CCN1CC(=O)N2[C@@H](Cc3ccc(O)cc3)C(=O)N(Cc3cccc4c3ncn4CCC)C[C@@H]2N1C(=O)NCc1ccccc1 [compound 71],0.9 ± 0.08,
C=CCN1CC(=O)N2[C@@H](Cc3ccc(O)cc3F)C(=O)N(Cc3ccc(F)cc3F)C[C@@H]2N1C(=O)NCc1ccccc1 [compound 74],0.91 ± 0.11,
C=CCN1CC(=O)N2[C@@H](Cc3ccc(O)cc3)C(=O)N(Cc3csc4cc([N+](=O)[O-])ccc34)C[C@@H]2N1C(=O)NCc1ccccc1 [compound 75],0.92 ± 0.14,
C=CCN1CC(=O)N2[C@@H](Cc3ccc(OP(=O)(O)O)cc3)C(=O)N(Cc3ccc(F)c4scnc34)C[C@@H]2N1C(=O)NCc1ccc2c(c1)OCO2 [compound 77],,0.94 ± 0.07
C=CCN1CC(=O)N2[C@@H](Cc3ccc(O)cc3)C(=O)N(Cc3cccc(OC)c3OCC3CC3)C[C@@H]2N1C(=O)NCc1ccccc1 [compound 79],0.95 ± 0.21,
C=CCN1CC(=O)N2[C@@H](Cc3ccc(O)cc3)C(=O)N(Cc3ccc(F)c4scnc34)C[C@@H]2N1C(=O)NCc1ccc(F)c(F)c1 [compound 80],0.96 ± 0.13,
C=CCN1CC(=O)N2[C@@H](Cc3ccc(O)cc3)C(=O)N(Cc3cccc(-c4ccccc4OC)n3)C[C@@H]2N1C(=O)NCc1ccccc1 [compound 81],0.97 ± 0.18,

# Continued, in another order:
IC50 [1] [µM],Structure (SMILES),IC50 (SW480) [µM]
0.79 ± 0.1,C=CCN1CC(=O)N2[C@@H](Cc3ccc(O)cc3)C(=O)N(Cc3cccc(-c4cccc(C(N)=O)c4)c3)C[C@@H]2N1C(=O)NCc1ccccc1 [compound 60],
0.8 ± 0.07,C=CCN1CC(=O)N2C(Cc3ccc(O)cc3)C(=O)N(Cc3cccc(-c4ccccn4)c3)C[C@@H]2N1C(=O)NCc1ccccc1 (stereo partly shown) [compound 61],
0.83 ± 0.22,C=CCN1CC(=O)N2[C@@H](Cc3ccc(O)cc3)C(=O)N(Cc3cccc4cc[nH]c34)C[C@@H]2N1C(=O)NCc1ccccc1 [compound 65],
0.86 ± 0.09,C=CCN1CC(=O)N2[C@@H](Cc3ccc(O)cc3)C(=O)N(Cc3csc4cc(N)ccc34)C[C@@H]2N1C(=O)NCc1ccccc1 [compound 68],
0.87 ± 0.32,C=CCN1CC(=O)N2[C@@H](Cc3ccc(O)cc3)C(=O)N(Cc3ccc(F)c(C#N)c3)C[C@@H]2N1C(=O)NCc1ccccc1 [compound 69],
0.9 ± 0.13,C=CCN1CC(=O)N2[C@@H](Cc3ccc(O)cc3)C(=O)N(Cc3cccc(-c4ccsc4)c3)C[C@@H]2N1C(=O)NCc1ccccc1 [compound 72],
0.9 ± 0.27,C=CCN1CC(=O)N2[C@@H](Cc3ccc(O)cc3)C(=O)N(Cc3cccc(C(C)=O)c3)C[C@@H]2N1C(=O)NCc1ccccc1 [compound 73],
0.94 ± 0.04,C=CCCNC(=O)c1cccc(CN2C[C@H]3N(C(=O)CN(CC=C)N3C(=O)NCc3ccccc3)[C@@H](Cc3ccc(O)cc3)C2=O)c1 [compound 76],
0.95 ± 0.15,C=CCN1CC(=O)N2[C@@H](Cc3ccc(O)cc3)C(=O)N(Cc3ccccc3N)C[C@@H]2N1C(=O)NCc1ccccc1 [compound 78],
